Measurements from ChEMBL document CHEMBL1154288, “The discovery and unique pharmacological profile of RO4938581 and RO4882224 as potent and selective GABAA alpha5 inverse agonists for the treatment of cognitive dysfunction” (Bioorg Med Chem Lett, 2009).
In brackets after ≈: the same amount, converted by molar mass.

Legend:
[1] = target: GABA A receptor alpha-5/beta-3/gamma-2 (Rattus norvegicus) (UniProt P18508+P19969+P63079); assay: Inverse agonist activity at rat GABA alpha-5-beta-3-gamma-2 receptor expressed in HEK293 cells by electrophysiology assay relative to GABA; assay type: functional, cell-based
[2] = target: T1, GABA-A receptor; alpha-5/beta-3/gamma-2 (Homo sapiens, UniProt P18507+P28472+P31644); assay: Displacement of [3H]Flumazenil from human GABA alpha-5-beta-3-gamma-2 receptor expressed in insect SF9 cells
T1 sequence (P18507 whole entry): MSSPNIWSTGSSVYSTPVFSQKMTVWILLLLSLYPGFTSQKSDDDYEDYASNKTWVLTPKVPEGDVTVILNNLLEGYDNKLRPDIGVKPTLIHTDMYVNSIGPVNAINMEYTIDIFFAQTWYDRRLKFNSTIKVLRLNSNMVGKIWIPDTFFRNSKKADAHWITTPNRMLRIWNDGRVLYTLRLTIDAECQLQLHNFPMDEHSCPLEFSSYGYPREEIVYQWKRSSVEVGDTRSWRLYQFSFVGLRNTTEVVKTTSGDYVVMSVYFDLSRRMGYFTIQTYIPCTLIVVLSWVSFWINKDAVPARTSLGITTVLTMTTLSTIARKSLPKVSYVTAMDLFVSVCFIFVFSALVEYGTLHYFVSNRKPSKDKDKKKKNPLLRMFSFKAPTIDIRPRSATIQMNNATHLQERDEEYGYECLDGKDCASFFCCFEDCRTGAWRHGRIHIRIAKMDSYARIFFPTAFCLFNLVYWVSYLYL
T1 sequence (P28472 whole entry): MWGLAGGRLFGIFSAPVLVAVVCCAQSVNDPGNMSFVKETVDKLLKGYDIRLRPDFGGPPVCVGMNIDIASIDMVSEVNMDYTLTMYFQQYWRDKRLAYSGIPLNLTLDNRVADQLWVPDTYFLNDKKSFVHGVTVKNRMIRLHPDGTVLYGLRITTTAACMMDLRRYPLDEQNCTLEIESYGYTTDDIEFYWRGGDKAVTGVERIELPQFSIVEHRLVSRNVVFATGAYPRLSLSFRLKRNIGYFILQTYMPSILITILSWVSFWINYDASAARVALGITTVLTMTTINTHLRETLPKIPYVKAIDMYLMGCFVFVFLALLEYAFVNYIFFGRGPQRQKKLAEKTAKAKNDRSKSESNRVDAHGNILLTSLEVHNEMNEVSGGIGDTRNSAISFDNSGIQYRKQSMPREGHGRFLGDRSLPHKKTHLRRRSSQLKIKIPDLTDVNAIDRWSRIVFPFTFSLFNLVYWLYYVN
T1 sequence (P31644 whole entry): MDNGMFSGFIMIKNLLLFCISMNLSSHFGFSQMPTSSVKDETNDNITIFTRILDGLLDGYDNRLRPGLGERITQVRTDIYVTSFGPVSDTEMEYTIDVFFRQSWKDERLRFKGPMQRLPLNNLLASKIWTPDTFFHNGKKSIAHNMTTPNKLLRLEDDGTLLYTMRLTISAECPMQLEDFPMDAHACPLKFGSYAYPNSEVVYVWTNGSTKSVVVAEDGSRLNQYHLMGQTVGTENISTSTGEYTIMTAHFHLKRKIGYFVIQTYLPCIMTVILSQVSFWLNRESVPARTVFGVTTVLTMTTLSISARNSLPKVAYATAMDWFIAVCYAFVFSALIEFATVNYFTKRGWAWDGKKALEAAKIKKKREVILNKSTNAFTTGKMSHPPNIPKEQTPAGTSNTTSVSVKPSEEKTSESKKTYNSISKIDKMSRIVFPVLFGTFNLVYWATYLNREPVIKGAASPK

[3] = Selectivity ratio of Ki for cloned human GABA alpha-1-beta-3-gamma-2 receptor expressed in insect SF9 cells to Ki for cloned human GABA alpha-5-beta-3-gamma-2 receptor expressed in insect SF9 cells
[4] = Selectivity ratio of Ki for cloned human GABA alpha-2-beta-3-gamma-2 receptor expressed in insect SF9 cells to Ki for cloned human GABA alpha-5-beta-3-gamma-2 receptor expressed in insect SF9 cells
[5] = Selectivity ratio of Ki for cloned human GABA alpha-3-beta-3-gamma-2 receptor expressed in insect SF9 cells to Ki for cloned human GABA alpha-5-beta-3-gamma-2 receptor expressed in insect SF9 cells
[6] = target: T1, GABA-A receptor; alpha-5/beta-3/gamma-2; assay: Displacement of [3H]Flumazenil from cloned human GABA alpha-5-beta-3-gamma-2 receptor expressed in HEK293 cells; assay type: cell-based
[7] = target: T2, GABA-A receptor; alpha-1/beta-3/gamma-2 (Homo sapiens, UniProt P14867+P18507+P28472); assay: Displacement of [3H]Flumazenil from cloned human GABA alpha-1-beta-3-gamma-2 receptor expressed in HEK293 cells; assay type: cell-based
T2 sequence (P14867 whole entry): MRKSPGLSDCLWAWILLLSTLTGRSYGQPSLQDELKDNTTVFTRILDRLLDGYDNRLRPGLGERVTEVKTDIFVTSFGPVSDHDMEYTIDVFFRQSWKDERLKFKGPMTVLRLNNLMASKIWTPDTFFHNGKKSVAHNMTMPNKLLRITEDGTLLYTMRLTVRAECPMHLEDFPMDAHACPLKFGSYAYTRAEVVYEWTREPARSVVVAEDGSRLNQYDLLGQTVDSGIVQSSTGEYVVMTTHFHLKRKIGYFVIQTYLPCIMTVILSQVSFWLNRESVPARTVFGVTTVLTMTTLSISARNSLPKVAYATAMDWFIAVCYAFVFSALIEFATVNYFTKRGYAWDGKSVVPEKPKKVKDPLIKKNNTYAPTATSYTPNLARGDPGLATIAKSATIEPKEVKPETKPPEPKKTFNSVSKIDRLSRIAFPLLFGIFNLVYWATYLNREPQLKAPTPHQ
T2 sequence (P18507 whole entry): T1 sequence (P18507 whole entry)
T2 sequence (P28472 whole entry): T1 sequence (P28472 whole entry)

[8] = target: T3, GABA-A receptor; alpha-2/beta-3/gamma-2 (Homo sapiens, UniProt P18507+P28472+P47869); assay: Displacement of [3H]Flumazenil from cloned human GABA alpha-2-beta-3-gamma-2 receptor expressed in HEK293 cells; assay type: cell-based
T3 sequence (P18507 whole entry): T1 sequence (P18507 whole entry)
T3 sequence (P28472 whole entry): T1 sequence (P28472 whole entry)
T3 sequence (P47869 whole entry): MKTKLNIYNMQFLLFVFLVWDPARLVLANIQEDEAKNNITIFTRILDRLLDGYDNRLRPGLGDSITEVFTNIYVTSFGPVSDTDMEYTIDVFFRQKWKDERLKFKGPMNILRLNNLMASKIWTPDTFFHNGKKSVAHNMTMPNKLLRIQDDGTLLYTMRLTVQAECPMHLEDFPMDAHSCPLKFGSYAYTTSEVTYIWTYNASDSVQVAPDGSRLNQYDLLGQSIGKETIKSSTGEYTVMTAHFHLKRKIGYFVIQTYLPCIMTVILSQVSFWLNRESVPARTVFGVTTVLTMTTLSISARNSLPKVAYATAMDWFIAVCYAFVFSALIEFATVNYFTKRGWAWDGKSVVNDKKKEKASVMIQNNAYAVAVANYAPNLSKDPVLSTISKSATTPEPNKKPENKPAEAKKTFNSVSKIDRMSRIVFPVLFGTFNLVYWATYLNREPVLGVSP

[9] = target: T4, GABA-A receptor; alpha-3/beta-3/gamma-2 (Homo sapiens, UniProt P18507+P28472+P34903); assay: Displacement of [3H]Flumazenil from cloned human GABA alpha-3-beta-3-gamma-2 receptor expressed in HEK293 cells; assay type: cell-based
T4 sequence (P18507 whole entry): T1 sequence (P18507 whole entry)
T4 sequence (P28472 whole entry): T1 sequence (P28472 whole entry)
T4 sequence (P34903 whole entry): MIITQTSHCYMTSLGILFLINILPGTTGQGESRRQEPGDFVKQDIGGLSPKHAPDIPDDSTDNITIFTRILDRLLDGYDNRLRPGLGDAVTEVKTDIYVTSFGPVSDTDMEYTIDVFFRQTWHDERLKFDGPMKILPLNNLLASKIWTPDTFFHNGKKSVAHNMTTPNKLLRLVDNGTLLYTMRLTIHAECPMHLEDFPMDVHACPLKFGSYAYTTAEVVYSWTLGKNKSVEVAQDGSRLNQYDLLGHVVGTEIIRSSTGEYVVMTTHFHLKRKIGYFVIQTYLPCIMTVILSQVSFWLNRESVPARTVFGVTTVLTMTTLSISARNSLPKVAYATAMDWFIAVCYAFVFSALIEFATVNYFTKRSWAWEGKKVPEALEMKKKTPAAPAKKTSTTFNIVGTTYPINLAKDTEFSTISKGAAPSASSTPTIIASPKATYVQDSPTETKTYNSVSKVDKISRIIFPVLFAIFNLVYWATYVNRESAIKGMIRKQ

[10] = target: GABA-A receptor; alpha-1/beta-2/gamma-2 (Rattus norvegicus) (UniProt P18508+P62813+P63138); assay: Inverse agonist activity at rat GABA alpha-1-beta-3-gamma-2 receptor expressed in HEK293 cells by electrophysiology assay relative to GABA; assay type: functional, cell-based
[11] = target: GABA A receptor alpha-2/beta-2/gamma-2 (Rattus norvegicus) (UniProt P18508+P23576+P63138); assay: Inverse agonist activity at rat GABA alpha-2-beta-3-gamma-2 receptor expressed in HEK293 cells by electrophysiology assay relative to GABA; assay type: functional, cell-based
[12] = target: Gamma-aminobutyric acid receptor subunit alpha-3 (Rattus norvegicus) (UniProt P20236); assay: Inverse agonist activity at rat GABA alpha-3-beta-3-gamma-2 receptor expressed in HEK293 cells by electrophysiology assay relative to GABA; assay type: functional, cell-based
Gamma-aminobutyric acid receptor subunit alpha-3 (Rattus norvegicus), sequence (P20236 whole entry): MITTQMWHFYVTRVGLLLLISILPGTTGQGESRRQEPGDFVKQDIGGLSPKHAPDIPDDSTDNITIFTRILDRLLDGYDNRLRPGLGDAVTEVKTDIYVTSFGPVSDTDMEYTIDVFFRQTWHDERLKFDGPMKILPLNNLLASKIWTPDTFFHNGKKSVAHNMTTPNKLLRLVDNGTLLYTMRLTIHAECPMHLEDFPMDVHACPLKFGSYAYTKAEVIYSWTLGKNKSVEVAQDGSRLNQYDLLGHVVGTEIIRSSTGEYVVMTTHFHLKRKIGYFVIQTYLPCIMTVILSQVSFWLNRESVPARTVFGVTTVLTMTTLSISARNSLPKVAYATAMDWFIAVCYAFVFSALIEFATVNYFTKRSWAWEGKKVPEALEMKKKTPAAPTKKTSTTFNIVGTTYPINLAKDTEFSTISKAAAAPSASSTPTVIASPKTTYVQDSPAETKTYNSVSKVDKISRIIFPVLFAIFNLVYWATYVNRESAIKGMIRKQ

[13] = Solubility by lypophlisation solubility assay; assay type: physicochemical
[14] = Lipophilicity, log D at pH 7.4; assay type: physicochemical; settings: buffer
[15] = Permeability by PAMPA; assay type: ADME; settings: read-out: permeability
[16] = Half life in rat; assay type: ADME, organism-based; settings: in vivo
[17] = Clearance in rat; assay type: ADME, organism-based; settings: in vivo
[18] = Volume of distribution at steady state in rat; assay type: ADME, organism-based; settings: in vivo, read-out: Vdss
[19] = Oral bioavailability in rat; assay type: ADME, organism-based; settings: in vivo

Row | Compound | Efficacy [1] [%] | Ki [2] [nM] | Ratio Ki [3] | Ratio Ki [4] | Ratio Ki [5] | also measured
1 | N#Cc1ncn2c1Cn1ncnc1-c1cc(Cl)ccc1-2 | -31 | 6.4 | 7 | 11 | 9 | –
2 | Fc1ccc2c(c1)-c1ncnn1Cc1cncn1-2 | -45 | 10 | 12 | 4 | 3 | –
3 | CCOC(=O)c1ncn2c1Cn1ncnc1-c1cc(F)ccc1-2 | -16 | 0.2 | 1 | – | 1 | Ratio [4]: 1
4 | FC(F)c1ncn2c1Cn1ncnc1-c1cc(Cl)ccc1-2 | -18 | – | – | – | – | Ki [6]: 5.6 nM; Ki [7]: 53 nM; Ki [8]: 81 nM; Ki [9]: 48 nM; Efficacy [10]: -20%; Efficacy [11]: 2%; Efficacy [12]: 21%; solubility [13]: 58 µg/mL (≈ 189 µM); logD [14]: 2; Papp [15]: 6.3 ×10⁻⁶ cm/s; half-life [16]: 54 min; clearance [17]: 3.8 mL/min/kg; Vd [18]: 0.3 L/kg; bioavailability [19]: 87%
5 | CCC(=O)c1ncn2c1Cn1ncnc1-c1cc(Cl)ccc1-2 | -38 | 2.6 | 12 | 11 | 8 | –
6 | Fc1ccc2c(c1)-c1ncnn1Cc1c(Cl)ncn1-2 | -33 | 0.3 | 3 | 4 | 3 | –
